For experiment [1], the target named is T1, FGFr (human FGF-1 (flg) receptor tyrosine kinase) (Homo sapiens, UniProt P11362).
T1 construct: PCR primers are designed to amplify a fragment of DNA that codes for the intracellular tyrosine kinase domain; made in house; host or cells: Sf9 insect cells (baculovirus), cell lysate
Kind of experiment: FGFr tyrosine kinase assay, 32P incorporation into glutamate-tyrosine copolymer. It counts as biochemical. The protocol:
Platelet Derived Growth Factor Receptor (PDGFr) and Fibroblast Growth Factor Receptor (FGFr). Full length cDNAs for the mouse PDGF-β and human FGF-1 (flg) receptor tyrosine kinases were obtained from J. Escobedo and are prepared as described in J. Biol. Chem., 1991;262:1482-1487. PCR primers are designed to amplify a fragment of DNA that codes for the intracellular tyrosine kinase domain. The fragment is melded into a baculovirus vector, cotransfected with AcMNPV DNA, and the recombinant virus isolated. SF9 insect cells are infected with the virus to overexpress the protein, and the cell lysate is used for the assay.
PDGFr and FGFr. […] Briefly, to each well is added 82.5 μL of incubation buffer containing 25 mM Hepes (pH 7.0), 150 mM NaCl, 0.1% Triton X-100, 0.2 mM PMSF, 0.2 mM sodium vanadate, 10 mM manganese chloride, and 750 μg/mL of poly (4:1) glutamate-tyrosine followed by 2.5 μL of inhibitor and 5 μL of enzyme lysate (7.5 μg/μL FGFR-TK or 6.0 μg/μL PDGFR-TK) to initiate the reaction. Following a 10 minute incubation at 25° C., 10 μL of [γ^32 P]ATP (0.4 μCi plus 50 μM ATP) is added to each well, and samples are incubated for an additional 10 minutes at 25° C. The reaction is terminated by the addition of 100 μL of 30% trichloroacetic acid (TCA) containing 20 mM sodium pyrophosphate and precipitation of material onto glass fiber filter mats (Wallac). […] Nonspecific activity is defined as radioactivity retained on the filters following incubation of samples with buffer alone; (no enzyme). Specific enzymatic activity is defined as total activity (enzyme plus buffer) minus nonspecific activity.

The target of a further experiment is T2, c-Src (Homo sapiens, UniProt P12931).
T2 construct: made in house; host or cells: baculovirus infected insect cells
Kind of experiment: c-Src kinase assay, 32P incorporation into polyglutamate-tyrosine. It counts as biochemical. The note with it: 5 μM ATP. The protocol: Other Kinases. c-Src kinase is purified from baculovirus infected insect cell lysates using an antipeptide monoclonal antibody directed against the N-terminal 2-17 amino acids as described previously by Fry, et al., Anticancer Drug Design, 1994;9:331-351. Protein kinase C (PKC.) is obtained as a rat brain preparation from Promega.
c-Src. The antibody, covalently linked to 0.65-μm latex beads, is added to a suspension of insect cell lysis buffer comprised of 150 mM NaCl, 50 mM Tris pH 7.5, 1 mM DTT, 1% NP-40, 2 mM EGTA, 1 mM sodium vanadate, 1 mM PMSF, 1 μg/mL each of leupeptin, pepstatin, and aprotinin. Insect cell lysate containing the c-Src protein is incubated with these beads for 3 to 4 hours at 4° C. with rotation. At the end of the lysate incubation, the beads are rinsed three times in lysis buffer, resuspended in lysis buffer containing 10% glycerol, and frozen. These latex beads are thawed, rinsed three times in assay buffer which is comprised of 40 mM tris pH 7.5, 5 mM magnesium chloride, and suspended in the same buffer. In a Millipore 96-well plate with a 0.65 μm polyvinylidine membrane bottom are added the reaction components: 10-μL c-Src beads, 10 μL of 2.5 mg/mL polyglutamate-tyrosine substrate, 5 μM ATP containing 0.2 μCi labeled ^32 P-ATP, 5 μL DMSO containing inhibitors or as a solvent control, and buffer to make the final volume 125 μL. The reaction is started at room temperature by addition of the ATP and quenched 10 minutes later by the addition of 125 μL of 30% TCA, 0.1 M sodium pyrophosphate for 15 minutes on ice. The plate is then filtered and the wells washed with two 250-μL aliquots of 15% TCA, 0.1 M pyrophosphate. The filters are punched, counted in a liquid scintillation counter, and the data examined for inhibitory activity in comparison to a known inhibitor such as erbstatin. The method is described more fully in J. Med. Chem., 1994;37:598-609.

Experiment [2] has as its target MAP Kinase Pathway (GST-MEK / GST-MAPK). Kind of experiment: Cascade Assay for Inhibitors of the MAP Kinase Pathway (APK Assay). The format is biochemical. Conditions: 50 μM [γ32P]ATP; compounds assessed at 10 μM. On the procedure: Cascade Assay for Inhibitors of the MAP Kinase Pathway (APK Assay)
Incorporation of ^32 P into myelin basic protein (MBP) is assayed in the presence of a glutathione; S-transferase fusion protein containing p44MAP kinase (GST-MAPK) and a glutathione; S-transferase fusion protein containing p45MEK (GST-MEK). The assay solution contains 20 mM HEPES, pH 7.4, 10 mM magnesium chloride, 1 mM manganese chloride, 1 mM EGTA, 50 μM [γ^32 P]ATP, 10 μg GST-MEK, 0.5 μg GST-MAPK and 40 μg MBP in a final volume of 100 μL. Reactions are stopped after 20 minutes by addition of trichloroacetic acid and filtered through a GF/C filter mat. ^32 P retained on the filter mat is determined using a 1205 betaplate. Compounds are assessed at 10 μM for ability to inhibit incorporation of ^32 P.
To ascertain whether compounds are inhibiting GST-MEK or GST MAPK, two additional protocols are employed. In the first protocol, compounds are added to tubes containing GST-MEK, followed by addition of GST-MAPK, MBP and [γ^32 P]ATP. In the second protocol, compounds are added to tubes containing both GST-MEK and GST-MAPK, followed by MBP and [γ^32 P]ATP.
Compounds that show activity in both protocols are scored as MAPK inhibitors, while compounds showing activity in only the first protocol are scored as MEK inhibitors.

For another experiment, the system named is SW-620 cells. Kind of experiment: Human Colon Carcinoma Clonogenic Assay, SW-620. The format is cell-based. Conditions: SW-620, 2 days with drug, colonies after approximately 2 weeks. The protocol: Human Colon Carcinoma Clonozenic Assay. Human colon carcinoma cells are seeded into 6 well plates in volumes of 3 mL and allowed to incubate overnight (37° C., 5% CO2, 95% air). SW-620 cells are seeded at 7×10^5 per well; HCT-8 cells are seeded at 5×10^5 per well; HT-29 cells are seeded at 4×10^5 cells per well. Serially diluted drugs are prepared at 200 times the final concentration, and 15 μL are added to each of duplicate wells. Cells are incubated with drug for 2 days, rinsed once with 1 mL of trypsin+EDTA, and then trypsinized with the same trypsin solution. After trituration and centrifugation at 750×g for 3 minutes, the cells are suspended in serum-free growth medium and counted using an electronic particle counter. An agarose mixture appropriate for the cloning of each cell line is made using 10% fetal bovine serum in growth medium (SW-620-0.35% agarose, HCT-8 and HT-29-0.4% agarose). […] One; milliliter of each of these cell suspensions is added to duplicate wells of 6 well plates previously prepared with 10% serum/growth medium/1% agarose plugs. The cells in these plates are incubated for approximately 2 weeks in the incubator and stained with 1 mL per well of 1 mg/mL iodonitrotetrazolium violet stain. The visible colonies are counted with an electronic optical colony counter and the clonogenicity of treated cells calculated in comparison to untreated control cells.

Some results are limits rather than exact numbers.

As usually defined, the IC50 is the concentration needed to halve the response being measured. Higher therefore signals weaker potency in that assay.

T2 sequence (P12931 whole entry, species assumed): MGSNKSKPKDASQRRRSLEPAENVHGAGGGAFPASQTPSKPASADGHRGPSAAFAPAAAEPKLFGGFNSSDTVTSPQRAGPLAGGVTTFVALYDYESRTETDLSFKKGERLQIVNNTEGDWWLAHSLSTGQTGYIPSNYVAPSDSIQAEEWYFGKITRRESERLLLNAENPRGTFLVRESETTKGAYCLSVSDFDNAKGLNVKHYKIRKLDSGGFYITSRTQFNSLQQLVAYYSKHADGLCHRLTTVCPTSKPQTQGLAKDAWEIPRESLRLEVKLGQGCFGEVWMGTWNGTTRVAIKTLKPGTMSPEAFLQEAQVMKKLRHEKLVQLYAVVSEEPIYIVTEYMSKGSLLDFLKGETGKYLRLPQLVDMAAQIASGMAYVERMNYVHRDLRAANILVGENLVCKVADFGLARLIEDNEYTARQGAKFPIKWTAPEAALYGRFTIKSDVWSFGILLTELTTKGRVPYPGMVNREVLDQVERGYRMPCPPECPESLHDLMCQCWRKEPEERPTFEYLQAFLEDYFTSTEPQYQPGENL
T1 sequence (P11362 478-767 limits assumed): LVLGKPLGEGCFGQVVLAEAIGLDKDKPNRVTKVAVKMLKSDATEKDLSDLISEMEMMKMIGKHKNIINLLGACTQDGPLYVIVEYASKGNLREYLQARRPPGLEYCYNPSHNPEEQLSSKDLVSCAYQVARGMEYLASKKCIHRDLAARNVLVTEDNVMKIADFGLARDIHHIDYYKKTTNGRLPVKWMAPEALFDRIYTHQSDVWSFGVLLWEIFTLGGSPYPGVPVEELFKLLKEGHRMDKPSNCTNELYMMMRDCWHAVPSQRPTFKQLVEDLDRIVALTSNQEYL

For the molecule `CCN(CC)CCCCNc1cc2c(cn1)cc(-c1c(Cl)cccc1Cl)c(=O)n2C` [Example F, 3-(2,6-dichlorophenyl)-7-[4-(diethylamino)butylamino]-1-methyl-1H-[1,6]naphthyridin-2-one], the IC50 in experiment [1] is 70 nM; against c-Src, 40 nM; in experiment [2], over 10000 nM; with SW-620 cells it was over 5000 nM.

For `CN1CCN(CCCNc2cc3c(cn2)cc(-c2c(Cl)cccc2Cl)c(=O)n3C)CC1` [Example H, 3-(2,6-dichlorophenyl)-1-methyl-7-[3-(4-methylpiperazin-1-yl)propylamino]-1H-[1,6]naphthyridin-2-one], the IC50 in experiment [1] worked out at 50 nM; at c-Src, 60 nM; in experiment [2], 10000 nM.

`CCN(CC)CCOc1ccc(Nc2cc3c(cn2)cc(-c2c(Cl)cccc2Cl)c(=O)n3C)cc1` [Example P, 3-(2,6-dichlorophenyl)-7-[(4-(2-(diethylamino)ethoxy)phenyl)amino]-1-methyl-1H-[1,6]naphthyridin-2-one] yielded an IC50 at c-Src of 80 nM.

`CN1CCN(CCOc2ccc(Nc3cc4c(cn3)cc(-c3c(Cl)cccc3Cl)c(=O)n4C)cc2)CC1` [Example S, 3-(2,6-dichlorophenyl)-1-methyl-7-[(4-(2-(4-methylpiperazin-1-yl)ethoxy)phenyl)amino]-1H-[1,6]naphthyridin-2-one]: the results for the IC50 against c-Src and in the experiment with SW-620 cells were 20 nM and 2800 nM, respectively.

Source of the values: patent publication US6150359A, “Naphthyridinones for inhibiting protein tyrosine kinase and cell cycle kinase mediated cellular proliferation” (Warner-Lambert Company, priority 2000, dated 2000).
